From patent publication US8940723B2, “Combination of a pyrroloquinoline compound and a beta-lactam antimicrobial agent, mupirocin or chlorhexidine” (Helperby Therapeutics Limited, priority 2010, dated 2015)
Converted amounts (≈) assume the structure as drawn. “Also recorded” adds a separate entry of the source. Where two headings read alike, the source gives them in different places.

Assays:
[1] = test system: Staphylococcus aureus (Oxford); assay: Minimum bactericidal concentration (MBC), subculture on drug-free TSA plates; type: cell-based; conditions: S. aureus (Oxford), subculture on TSA 24 to 48 hours at 37° C.
Method: Minimum bactericidal concentration (MBC) was determined by subculturing 100 μl of dilutions from the 96-well plate on fresh drug-free TSA agar plates and incubating further for 24 to 48 hours at 37° C.

[2] = test system: log phase S. aureus (Oxford strain); assay: Time-kill curve suspension assay, CFU counts, log phase; type: cell-based, Staphylococcus aureus
Method: For CFU counting, the bacterial suspensions were diluted using sterile deionized water or phosphate-buffered saline (PBS, Sigma Aldrich Ltd, Poole, Dorset, UK). 100 μl of 10-fold serial dilutions of bacteria culture were plated on one third of TSA plates in triplicate and incubated 24 to 48 hours at 37° C. The number of cells presented on the plates was counted using an AcoLyte colony counter (Synbiosis) and results were expressed as Colony Forming Units/ml (CFU/ml). […] (b) mupirocin; and (c) chlorhexidine gluconate against S. aureus, in a concentration range from below to above the MIC, was assessed in a suspension assay by the time-kill curve method. […] The wells were then inoculated with 280 μl of S. aureus (Oxford strain) suspension containing 10^7 CFU/ml of inocula. Drug free controls were also included. The microtitre plates were incubated at 37° C. for 16 to 24 hours, read in a 96-well plate reader, then samples were diluted and 100 μl of each dilution was plated out on TSA plates. After 24 to 48 hours incubation CFU was counted. Each test was performed in triplicate and repeated twice. […] The wells were then inoculated with 280 μl of S. aureus (Oxford strain) suspension containing 10^7 CFU/ml of inocula. Drug free controls were also included. The microtitre plates were incubated at 37° C. for 16 to 24 hours, read in a 96-well plate reader, then samples were diluted and 100 μl of each dilution was plated out on TSA plates. After 24 to 48 hours incubation CFU was counted. […] Each test was performed in triplicate and repeated twice. […] The wells were then inoculated with 280 μl of S. aureus (Oxford strain) suspensions containing 10^7 or 10^8 and CFU/ml of inocula. Drug free controls were also included. The microtitre plates were incubated at 37° C. for 16 to 24 hours, read in a 96-well plate reader, then samples were diluted and 100 μl of each dilution was plated out on TSA plates. After 24 to 48 hours incubation CFU was counted. Each test was performed in triplicate and repeated twice. […] The mean bacterial colony count at varying time points was compared by the two-tailed t-test with unequal variance. P values of ≦0.05 indicated significant difference.

[3] = test system: Staphylococcus aureus (Oxford); assay: Minimum inhibitory concentration (MIC), broth dilution method; type: cell-based; conditions: S. aureus (Oxford), Iso-Sensitest broth, overnight incubation at 37° C.
Method: Staphylococcus aureus (Oxford); Gram positive; Reference strain.
Iso-Sensitest Broth (Oxoid) was used for evaluation of Minimum inhibitory concentrations (MICs), susceptibility tests for antimicrobials, and efficacy of antimicrobial combinations.
The stock solution of each drug was diluted to required concentrations. 10 μl of drug from each dilution was taken and mixed with 290 μl of culture with 10^6 of bacterial cells on a 96-well plate to make the final required concentrations (μg/ml).
The plates were read at 405 nm using a 96-well plate reader Elx 800 equipped with a 405-nm filter (Bio-Tek) before and after incubation. The MIC values of the drugs were determined by comparison of the optical density reading between prior and post drug treatment.

[4] = test system: clinically latent microorganisms; assay: Screening for ability to kill clinically latent microorganisms (method of WO2000028074); type: cell-based
From the text: International Patent Application, Publication Number WO2000028074 describes a method of screening compounds to determine their ability to kill clinically latent microorganisms. […] This observation has necessitated the development of novel antimicrobials which may be used to kill clinically latent microorganisms.
By way of example, WO2000028074 describes a suitable method of screening compounds to determine their ability to kill clinically latent microorganisms. A typical method may include the following steps: • (1) growing a bacterial culture to stationary phase; • (2) treating the stationary phase culture with one or more antimicrobial agents at a concentration and or time sufficient to kill growing bacteria, thereby selecting a phenotypically resistant sub-population; • (3) incubating a sample of the phenotypically resistant subpopulation with one or more test compounds or agents; and • (4) assessing any antimicrobial effects against the phenotypically resistant subpopulation.
According to this method, the phenotypically resistant sub-population may be seen as representative of clinically latent bacteria which remain metabolically active in vivo and which can result in relapse or onset of disease.

[5] = Staphylococcus aureus, read-out: MBC
[6] = Staphylococcus aureus, read-out: MIC

| Compound | MBC [1, 5] [µg/mL] | MIC [3, 6] [µg/mL] | activity against clinically latent microorganisms [4] | also measured |
| --- | --- | --- | --- | --- |
| Cc1nc2ccc(Oc3ccccc3)cc2c2c1CCN2CCc1ccccc1 [4-methyl-8-phenoxy-1-(2-phenylethyl)-2,3-dihydro-1H-pyrrolo[3,2-c]quinoline] | 16 (≈ 42.1 µM) | 8 | – | activity against log phase S. aureus ([2]; agent alone at 4 μg/ml): no activities; also recorded: no activity; kind of activity against log phase S. aureus ([2]; pyrroloquinoline alone at 10 and 8 μg/ml): bactericidal activity; CFU/ml reduced from 10^7 to ([2]; pyrroloquinoline alone at 10 and 8 μg/ml, at 72 hours): zero |
| N=C(NCCCCCCNC(=N)NC(=N)Nc1ccc(Cl)cc1)NC(=N)Nc1ccc(Cl)cc1.O=C(O)[C@H](O)[C@@H](O)[C@H](O)[C@H](O)CO.O=C(O)[C@H](O)[C@@H](O)[C@H](O)[C@H](O)CO [Chlorhexidine gluconate] | – | – | – | MBC [1]: 2 µg/mL; MIC [3]: 0.5 µg/mL |
| C/C(=C\C(=O)OCCCCCCCCC(=O)O)C[C@@H]1OC[C@H](C[C@@H]2O[C@H]2[C@@H](C)[C@H](C)O)[C@@H](O)[C@H]1O [Mupirocin] | 256 (≈ 511 µM) | 0.125 | little or no activity | kind of activity against log phase S. aureus ([2]; mupirocin alone at 40, 20 and 10 μg/ml): bacteriostatic |
| CC[C@H]1OC(=O)[C@H](C)[C@@H](O[C@H]2C[C@@](C)(OC)[C@@H](O)[C@H](C)O2)[C@H](C)[C@@H](O[C@@H]2O[C@H](C)C[C@H](N(C)C)[C@H]2O)[C@](C)(O)C[C@@H](C)CN(C)[C@H](C)[C@@H](O)[C@]1(C)O [azithromycin] | – | – | little or no activity | – |
| CC(=O)NC[C@H]1CN(c2ccc(N3CCOCC3)c(F)c2)C(=O)O1 [linezolid] | – | – | little or no activity | – |
